≈ marks a conversion by molar mass, not a printed value. Like-named read-outs stand apart in the source and are kept apart here.
Tests used:
[1] = system: wild-type E. coli BW25113; assay: Growth response to 3-HP (toleragram, OD600, doublings over 24 h), E. coli aerobic; assay type: cell-based; settings: aerobic condition, FIG. 15B
Protocol: Overnight cultures of wild-type E. coli BW25113 were grown in triplicate in 5 mL standard LB medium. 100 uL of overnight cultures were used to inoculate triplicate 5 mL samples of M9 minimal medium+3HP, containing 47.7 mM Na2HPO4, 22 mM KH2PO4, 8.6 mM NaCl, 18.7 mM NH4Cl, 2 mM MgSO4, 0.1 mM CaCl2, and 0.4% glucose, with 3HP concentrations ranging from 0-50 g/L. Starting OD600 ranged from 0.02-0.08. Cultures were incubated at 37 C for about 24 hours, and OD600 was recorded every 1-2 hours for the first 8 hours with a final OD600 recorded at about 24 hours. Maximum specific growth rates (μmax) were calculated by determining the optimal fit of exponential trend lines with OD data for the evaluation period. Specific changes in OD600 over approximately 24 hours (Δ24 hrOD600) were calculated as the difference in t=24 hr and t=0 optical density, Δ24hOD600=(ODt=24)−(ODt=0). Specific number of doublings (Nd) were calculated by solving for N in the equation 2^N=(ODt=24)/(ODt=0).

E. coli K12 = assay: microbe, parasite or virus in culture; settings: Escherichia coli, K12, 24 h
[2] = Reactive extraction of 3-HP from clarified fermentation broth into tertiary amine non-polar phase with co-solvents; assay type: physicochemical; settings: for 3-HP concentration raffinate: start 96.85 g/L 3-HP, single pass
Protocol: Calcium chloride at 1 M was added as a flocculent to reach a final concentration of about 8.2 g/L. Thereafter the pH was adjusted to a pH of approximately 2.0 using sulfuric acid. Thereafter a volume of this modified fermentation broth was centrifuged at approximately 3,200 g for 5 minutes to yield a clarified broth and a pellet, which was discarded.
Portions of the clarified broth were then subjected to reactive extraction by mixing with a tertiary amine non-polar phase comprising various co-solvents. […] Amines included Alamine 336, described above, and tripentylamine.

[3] = 3-HP preparation: neutralisation of commercial 3-HP to pH 7.0, observation of insoluble matter; assay type: physicochemical
Text: (§1) 3-HP was obtained from TCI America (Portland, Oreg.). Significant acrylic acid and 2-oxydipropionic contamination was observed via HPLC analysis. Samples were subsequently treated by diethyl ether extraction to remove acrylic acid and a portion of the 2-oxydipropionic contaminants. Samples were then neutralized with 10 M NaOH to a final pH of 7.0. […] The working stock solution was used for the selection and MIC evaluations in this example.
as §1, with “selection, growth rates” for “selection”

E. coli = assay: microbe, parasite or virus in culture; assay type: cell-based; settings: for MIC: Escherichia coli
Protocol: For MIC evaluations, the final results are expressed in chemical agent concentrations determined by analysis of the stock solution by HPLC (i.e., see Subsection IIIb).
The minimum inhibitory concentration (MIC) was determined anaerobically in a 96 well-plate format. […] Media supplements were added according to levels reported in the Supplements Table, where specified. Overnight cultures of strains were grown in triplicate in 5 mL LB (with antibiotic where appropriate). A 1% (v/v) inoculum was introduced into a 5 ml culture of M9 minimal media.

[4] = sample 1: Alamine 336 with Butanol
[5] = sample 2: Tripentylamine with Butanol
[6] = sample 3: Tripentylamine with p-Xylene
[7] = sample 4: Tripentylamine with Methyl ethyl ketone
[8] = sample 5: Tripentylamine with Methyl tert-butyl ether
[9] = sample 1: Alamine 336 with Butanol, 3-HP mass start 0.97 G
[10] = sample 2: Tripentylamine with Butanol, 3-HP mass start 1.94 G
[11] = sample 3: Tripentylamine with p-Xylene, 3-HP mass start 1.94 G
[12] = sample 4: Tripentylamine with Methyl ethyl ketone, 3-HP mass start 1.94 G
[13] = sample 5: Tripentylamine with Methyl tert-butyl ether, 3-HP mass start 1.94 G

## O=C(O)CCO [3-HP, 3-hydroxypropionic acid]
[1]
  3-HP concentration at which a dramatic reduction in cell density (OD600) at 24 hours starts: 30 g/L
E. coli K12; read-out: Minimum inhibitory concentration (MIC) for E. coli K12 in 100 g/L stock solution 3-HP (control)
  MIC: 20 mg/mL (≈ 222 mM)
E. coli K12; read-out: Minimum inhibitory concentration (MIC) of 3-HP for E. coli K12 in M9 minimal media
  MIC: 30 mg/mL (≈ 333 mM)
[2]; [4]
  Total 3HP extracted: 0.59 G
  % 3-HP extracted: 61%
  % 3-HP raffinate: 39%
[2]; [5]
  Total 3HP extracted: 1.13 G
  % 3-HP extracted: 58%
  % 3-HP raffinate: 42%
[2]; [6]
  Total 3HP extracted: 0.46 G
  % 3-HP extracted: 24%
  % 3-HP raffinate: 76%
[2]; [7]
  Total 3HP extracted: 1.31 G
  % 3-HP extracted: 67%
  % 3-HP raffinate: 33%
[2]; [8]
  Total 3HP extracted: 0.73 G
  % 3-HP extracted: 38%
  % 3-HP raffinate: 62%
[2]; sample 1: Alamine 336 with Butanol co-solvent
  3-HP concentration raffinate: 53.94 g/L
[2]; [9]
  3-HP mass extractant: 0.59 G
  3-HP mass raffinate: 0.38 G
[2]; sample 2: Tripentylamine with Butanol co-solvent
  3-HP concentration raffinate: 54.17 g/L
[2]; [10]
  3-HP mass extractant: 1.13 G
  3-HP mass raffinate: 0.81 G
[2]; sample 3: Tripentylamine with p-Xylene co-solvent
  3-HP concentration raffinate: 78.69 g/L
[2]; [11]
  3-HP mass extractant: 0.46 G
  3-HP mass raffinate: 1.47 G
[2]; sample 4: Tripentylamine with Methyl ethyl ketone co-solvent
  3-HP concentration raffinate: 52.75 g/L
[2]; [12]
  3-HP mass extractant: 1.31 G
  3-HP mass raffinate: 0.63 G
[2]; sample 5: Tripentylamine with Methyl tert-butyl ether co-solvent
  3-HP concentration raffinate: 67.64 g/L
[2]; [13]
  3-HP mass extractant: 0.73 G
  3-HP mass raffinate: 1.21 G
[3]; commercial 3-HP (TCI America), ether extracted, neutralized with 10 M NaOH to pH 7.0
  3-HP concentration in excess of which considerable 3-HP polymerization was observed at neutral pH: approximately 35 g/L
[3]; pH 7, aqueous buffer
  solubility: ~35 mg/mL (≈ 389 mM)
E. coli; BW25113, EZ Rich media vs M9 control, anaerobic
  % Increase Over Control: 150%
E. coli; BW25113, read-out: MIC Assay Result (g/L 3-HP), BW25113, EZ Rich media, supplements none, anaerobic
  MIC: 75 g/L (≈ 833 mM)
E. coli; BW25113, read-out: MIC Assay Result (g/L 3-HP), BW25113, M9, supplements none (control), anaerobic
  MIC: 30 g/L (≈ 333 mM)
E. coli; BW25113, read-out: MIC Assay Result (g/L 3-HP), anaerobic, strain BX_00002.0: BW25113 wild type, pKK223-mcs1 (control), M9 + Amp (100 μg/mL)
  MIC: 15 g/L
E. coli; BW25113, read-out: MIC Assay Result (g/L 3-HP), anaerobic, strain BX_00003.0: BW25113 wild type, pBT-3 (control), M9 + Cm (20 μg/mL)
  MIC: 15 g/L

Reference: patent US20130122541A1, “MICROORGANISM PRODUCTION OF HIGH-VALUE CHEMICAL PRODUCTS, AND RELATED COMPOSITIONS, METHODS AND SYSTEMS” (The Regents of the University of Colorado, priority 2010, published 2013)
